We go through ten compounds from patent publication US20220041647A1, “ESTRA-1,3,5(10)-TRIENE COMPOUNDS CONDENSED IN POSITION 16(17) WITH A PYRAZOLE RING AS INHIBITORS OF 17-HSD1” (FORENDO PHARMA LTD, priority 2018, published 2022).

Common to all, as to type: biochemical
Experiment [1] has as its target T1, recombinant human 17β-HSD1 (Homo sapiens, UniProt P14061).
T1 construct: made in house; host or cells: Sd9 (Sf9) insect cells, baculovirus (Bac to Bac Expression System)
T1 sequence (P14061 1-328): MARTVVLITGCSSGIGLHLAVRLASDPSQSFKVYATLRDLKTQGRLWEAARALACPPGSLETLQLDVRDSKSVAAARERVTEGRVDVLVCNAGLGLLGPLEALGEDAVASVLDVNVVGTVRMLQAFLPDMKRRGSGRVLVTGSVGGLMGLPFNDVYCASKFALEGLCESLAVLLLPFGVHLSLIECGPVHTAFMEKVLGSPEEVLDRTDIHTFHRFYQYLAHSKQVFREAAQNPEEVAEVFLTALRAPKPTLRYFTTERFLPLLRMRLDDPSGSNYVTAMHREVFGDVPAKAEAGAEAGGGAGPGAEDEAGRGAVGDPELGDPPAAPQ
The experiment can be described thus: Inhibition of recombinant human 17β-HSD1 (estrone to estradiol conversion, HPLC/radioactivity). To be noted: compound 100 nM; 30 nM estrone, 1 mM NADPH, 30 min RT. How it is done:
17β-HSD1 production and isolation: Recombinant baculovirus was generated by the “Bac to Bac Expression System” (Invitrogen). Recombinant bacmid was transfected to Sd9 insect cells using “Cellfectin Reagent” (Invitrogen). 60 h later cells were harvested; the microsomal fraction was isolated as described by Puranen, T. J., Poutanen, M. H., Peltoketo, H. E., Vihko, P. T. and Vihko, R. K. (1994) Site-directed mutagenesis of the putative active site of human 17 β-hydroxysteroid dehydrogenase type 1. Biochem. J. 304: 289-293. Aliquots were stored frozen until determination of enzymatic activity.
Assay—Inhibition of recombinant human 17β-HSD1: Recombinant protein (1 μg/ml) was incubated in 20 mM KH2PO4 pH 7.4 with 30 nM estrone (including 800 000 cpm/ml of ^3H-estrone) and 1 mM NADPH for 30 min at RT, in the presence of the potential inhibitor at concentrations 1 μM or 0.1 μM. Inhibitor stock solutions were prepared in DMSO. Final concentration of DMSO was adjusted to 1% in all samples. The enzyme reaction was stopped by addition of 10% trichloroacetic acid (final concentration). Samples were centrifuged in a microtiter plate at 4000 rpm for 10 min. Supernatants were applied to reverse phase HPLC on a Waters Symmetry C18 column, equipped with a Waters Sentry Guard column. Isocratic HPLC runs were performed at RT at a flow rate of 1 ml/min in acetonitrile:water 48:52 as running solvent. Radioactivity was monitored in the eluate by a Scintillation Analyzer. Total radioactivity for estrone and estradiol were determined in each sample and percent conversion of estrone to estradiol was calculated according to the following formula:
% conversion=100×{(cpm estradiol in sample with inhibitor)/[(cpm estrone in sample with inhibitor)+(cpm estradiol in sample with inhibitor)]}/{[(cpm estradiol in sample without inhibitor)/[(cpm estrone in sample without inhibitor)+(cpm estradiol in sample without inhibitor)]}.
(§1) Percent inhibition was calculated followingly: % inhibition=100−% conversion.

Experiment [2] has as its target T2, recombinant human 17β-HSD2 (Homo sapiens, UniProt P37059).
T2 construct: made in house; host or cells: Sd9 (Sf9) insect cells, baculovirus (Bac to Bac Expression System)
T2 sequence (P37059 1-387): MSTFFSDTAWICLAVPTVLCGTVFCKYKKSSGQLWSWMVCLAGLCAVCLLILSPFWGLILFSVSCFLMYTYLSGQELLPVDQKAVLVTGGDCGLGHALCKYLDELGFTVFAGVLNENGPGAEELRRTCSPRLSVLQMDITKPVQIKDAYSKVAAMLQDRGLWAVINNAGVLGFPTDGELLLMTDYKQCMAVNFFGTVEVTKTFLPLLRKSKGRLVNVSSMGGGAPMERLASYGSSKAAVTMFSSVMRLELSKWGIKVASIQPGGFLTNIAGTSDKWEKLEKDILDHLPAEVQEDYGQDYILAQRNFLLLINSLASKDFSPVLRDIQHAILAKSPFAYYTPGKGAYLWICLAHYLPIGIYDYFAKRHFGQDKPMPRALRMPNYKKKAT
In words: Inhibition of recombinant human 17β-HSD2 (estradiol to estrone conversion, HPLC/radioactivity). Particulars: compound 1 μM; 50 nM estradiol, 1 mM NADH, 30 min RT. Here is the method: 17β-HSD2 production and isolation: Similarly to 173-HSD1 the Recombinant baculovirus was generated by the “Bac to Bac Expression System” (Invitrogen). Recombinant bacmid was transfected to Sd9 insect cells using “Cellfectin Reagent” (Invitrogen). 60 h later cells were harvested and supernatant were fractionated by the following protocol: • cells were dissolved into 40 ml of A-buffer (40 mM TRIS, pH8.0, 20% glycerol, 20 μM NAD, 0.4 mM PMSF, 150 mM NaCl, 0.5% dodecyl-β-maltoside+protease inhibitor cocktail) • cells were sonicated • lysate was incubated on ice for 15 min • lysate was centrifuged 5000 rpm 15 min, +4° C. • centrifugation of the supernatant 180 000 g 30 min, +4° C. • pellet was dissolved into 8 ml of A-buffer • not resuspended material was removed by centrifugation 5000 rpm 15 min, +4° C. • the clear supernatant was divided into 100 μl aliquots and were stored frozen until determination of enzymatic activity.
The amount of 173-HSD2 was analysed by immunoblotting and total protein concentration of each extract batch was determined.
Assay—Inhibition of recombinant human 17β-HSD2: Recombinant protein (4 μg/ml) was incubated in 20 mM KH2PO4 pH 8.5 with 50 nM estradiol (including 800 000 cpm/ml of ^3H-estradiol) and 1 mM NADH for 30 min at RT, in the presence of the potential inhibitor at concentrations 1 μM or 0.1 μM. Inhibitor stock solutions were prepared in DMSO. Final concentration of DMSO was adjusted to 1% in all samples. The enzyme reaction was stopped by addition of 10% trichloroacetic acid (final concentration). Samples were centrifuged in a microtiter plate at 4000 rpm for 10 min. Supernatants were applied to reverse phase HPLC on a Waters Symmetry C18 column, equipped with a Waters Sentry Guard column. Isocratic HPLC runs were performed at RT at a flow rate of1 ml/min in acetonitrile:water 48:52 as running solvent. Radioactivity was monitored in the eluate by a Scintillation Analyzer. Total radioactivity for estrone and estradiol were determined in each sample and percent conversion of estradiol to estrone was calculated according to the following formula:
% conversion=100×{(cpm estrone in sample with inhibitor)/[(cpm estradiol in sample with inhibitor)+(cpm estrone in sample with inhibitor)]}/{[(cpm estrone in sample without inhibitor)/[(cpm estradiol in sample without inhibitor)+(cpm estrone in sample without inhibitor)]}.
as §1

Experiment [3] has as its system HSD1 enzyme that is expressed in rabbit placenta tissue. In words: Inhibition of E1 to E2 conversion in rabbit placenta tissue homogenate. To be noted: compound 100 nM, 30 nM estrone, 1 mM β-NADPH, 30 min. Here is the method: The assay is based on an enzymatic reaction where HSD1 enzyme that is expressed in rabbit placenta tissue converts its natural substance estrone (E1) to estradiol (E2) in the presence of a co-factor β-NADPH.
Homogenization of rabbit placenta tissue: Weight a piece of the frozen tissue into a Precellys ck28 bead tube. Add buffer solution (20 mM KH2PO4 with 1 mM EDTA, pH 7.4) in 1:2 ratio (e.g. 300 mg of tissue:600 μl reaction buffer solution). Insert the bead tubes to homogenizer and homogenize 2×30 s. 6000 rpm.
Centrifugated 5 min., 2600 rpm at +4° C. and collect supernatant. Aliquots of homogenate are stored in −80° C.
Assay—Inhibition of E1 to E2 conversion in rabbit placenta tissue: The reaction takes place in a buffer solution (20 mM KH2PO4 with 1 mM EDTA, pH 7,4), including appropriate amount of rabbit placenta homogenate, co-factor (1 mM β-NADPH), Substrate (30 nM estrone), labelled substrate as tracer (5 nM [^3H]-estrone), and the potential inhibitor at concentrations 1 μM or 0.1 μM. Inhibitor stock solutions were prepared in DMSO. Final concentration of DMSO was adjusted to 1% in all samples. During a 30-minute incubation part of the estrone is converted to estradiol. The reaction is stopped by lowering the pH to 1 with 10% trichloro acetic acid (TCA). The substrate and conversion products are analyzed by HPLC and a Scintillation counter analyzer. Total radioactivity for estrone and estradiol were determined in each sample and percent conversion of estrone to estradiol was calculated according to the following formula:
% conversion=100×{(cpm estradiol in sample with inhibitor)/[(cpm estrone in sample with inhibitor)+(cpm estradiol in sample with inhibitor)]}/{(cpm estradiol in sample without inhibitor)/[(cpm estrone in sample without inhibitor)+(cpm estradiol in sample without inhibitor)]}.
as §1

On to `CC(C)(C)NC(=O)CC[C@@H]1c2c[nH]nc2[C@@]2(C)CCC3c4cccc(F)c4CCC3C12` (stereo partly drawn) [Compound 72, N-(tert-butyl)-3-((8aS,12S)-3-fluoro-8a-methyl-1,2,6b,7,8,8a,10,12,12a,12b-decahydronaphtho[2′,1′:4,5]indeno[1,2-c]pyrazol-12-yl)propanamide], for which the inhibition at 0.1 µM in experiment [1] came out at 93%. For the same compound, the inhibition at 1 µM in experiment [2] came to 2%.
As for `C[C@]12CCC3c4cccc(F)c4CCC3C1[C@H](CCC(=O)Nc1ccc(F)cn1)c1c[nH]nc12` (stereo partly drawn) [Compound 12, 3-((8aS,12S)-3-fluoro-8a-methyl-1,2,6b,7,8,8a,10,12,12a,12b-decahydronaphtho[2′,1′:4,5]indeno[1,2-c]pyrazol-12-yl)-N-(5-fluoropyridin-2-yl)propanamide], in experiment [1], the inhibition at 0.1 µM was found to be 92%. Moreover, the “Rabbit placenta inhibition % @100 nM” value in experiment [3] turned out to be 46%. Also, the inhibition at 1 µM in experiment [2] was 5%.
On to `Cc1cc(NC(=O)CC[C@@H]2c3c[nH]nc3[C@@]3(C)CCC4c5ccccc5CCC4C23)no1` (stereo partly drawn) [Compound 246, 3-((8aS,12S)-8a-methyl-1,2,6b,7,8,8a,10,12,12a,12b-decahydronaphtho[2′,1′:4,5]indeno[1,2-c]pyrazol-12-yl)-N-(5-methylisoxazol-3-yl)propanamide], for which, in experiment [1], the inhibition at 0.1 µM was 80%. Also, the “Rabbit placenta inhibition % @100 nM” value in experiment [3] came out at 19%. The inhibition at 1 µM in experiment [2] was 15%.
In the case of `C[C@]12CCC3c4ccccc4CCC3C1[C@H](CCC(=O)Nc1ccc(N3CCOCC3)cn1)c1c[nH]nc12` (stereo partly drawn) [Compound 252, 3-((8aS,12S)-8a-methyl-1,2,6b,7,8,8a,10,12,12a,12b-decahydronaphtho[2′,1′:4,5]indeno[1,2-c]pyrazol-12-yl)-N-(5-morpholinopyridin-2-yl)propanamide], the inhibition at 0.1 µM in experiment [1] was 90%. Further, the “Rabbit placenta inhibition % @100 nM” value in experiment [3] worked out at 46%. In addition, the inhibition at 1 µM in experiment [2] was 7%.
In the same order, the values of `C[C@]12CCC3c4cccc(F)c4CCC3C1[C@H](CCC(=O)Nc1cccc(F)n1)c1c[nH]nc12` (stereo partly drawn) [Compound 204, 3-((8aS,12S)-3-fluoro-8a-methyl-1,2,6b,7,8,8a,10,12,12a,12b-decahydronaphtho[2′,1′:4,5]indeno[1,2-c]pyrazol-12-yl)-N-(6-fluoropyridin-2-yl)propanamide] are 96%, 63% and 1%.
For `C[C@]12CCC3c4ccccc4CCC3C1[C@H](CCC(=O)Nc1cccc(F)n1)c1c[nH]nc12` (stereo partly drawn) [Compound 258, N-(6-fluoropyridin-2-yl)-3-((8aS,12S)-8a-methyl-1,2,6b,7,8,8a,10,12,12a,12b-decahydronaphtho[2′,1′:4,5]indeno[1,2-c]pyrazol-12-yl)propanamide] the same measures were 90%, 43% and 2%.
Turning to `C[C@]12CCC3c4ccccc4CCC3C1[C@H](CCC(=O)Nc1ncccc1F)c1c[nH]nc12` (stereo partly drawn) [Compound 264, N-(3-fluoropyridin-2-yl)-3-((8aS,12S)-8a-methyl-1,2,6b,7,8,8a,10,12,12a,12b-decahydronaphtho[2′,1′:4,5]indeno[1,2-c]pyrazol-12-yl)propanamide], in experiment [1], the inhibition at 0.1 µM was 54%. Moreover, the inhibition at 1 µM in experiment [2] amounted to 4%.
For `C[C@]12CCC3c4ccccc4CCC3C1[C@H](CCC(=O)N1CCOCC1)c1c[nH]nc12` (stereo partly drawn) [Compound 249, 3-((8aS,12S)-8a-methyl-1,2,6b,7,8,8a,10,12,12a,12b-decahydronaphtho[2′,1′:4,5]indeno[1,2-c]pyrazol-12-yl)-1-morpholinopropan-1-one] the same measures were 59% and 7%.
`C[C@]12CCC3c4ccc(F)cc4CCC3C1[C@H](CCC(=O)N1CCCC1)c1c[nH]nc12` (stereo partly drawn) [Compound 117, 3-((8aS,12S)-4-fluoro-8a-methyl-1,2,6b,7,8,8a,10,12,12a,12b-decahydronaphtho[2′,1′:4,S]indeno[1,2-c]pyrazol-12-yl)-1-(pyrrolidin-1-yl)propan-1-one]: in experiment [1], the inhibition at 0.1 µM came out at 73%. Further, the inhibition at 1 µM in experiment [2] was 2%.
For `C[C@]12CCC3c4ccccc4CCC3C1[C@H](CCC(=O)Nc1ncc(F)cc1F)c1c[nH]nc12` (stereo partly drawn) [Compound 261, N-(3,5-difluoropyridin-2-yl)-3-((8aS,12S)-8a-methyl-1,2,6b,7,8,8a,10,12,12a,12b-decahydronaphtho[2′,1′:4,5]indeno[1,2-c]pyrazol-12-yl)propanamide] the same measures were 50% and 9%.

In general, inhibition refers to the relative decrease from the control value, in per cent.
